Experimental findings from patent US20170029841A1, “METHODS AND COMPOSITIONS FOR SELECTIVE REGULATION OF PROTEIN EXPRESSION” (priority 2015, published 2017) are described below.

The subject of this series is maize tissue pools (tassel, ear, leaf, root, stem). As to the kind of experiment: siRNA profiling microarray assay of mts-siRNA sequences across maize tissues. The conditions noted are these: for 01DKD2 V8-V9 Tassel relative signal value: germplasm 01DKD2, V8-V9 tassel; for 01DKD2 V10-V12 Tassel relative signal value: germplasm 01DKD2, V10-V12 tassel; for 01DKD2 Other Tissue relative signal value: germplasm 01DKD2, combined signals from other tissue; for LH244 V8-V9 Tassel relative signal value: germplasm LH244, V8-V9 tassel; for LH244 V10-V12 Tassel relative signal value: germplasm LH244, V10-V12 tassel; for LH244 Other Tissue relative signal value: germplasm LH244, combined signals from other tissue. The procedure: A siRNA profiling microarray assay was performed using μParaflo® Microfluidics chips provided by LC Sciences LLC (Houston, Tex., USA) with 1,200 sequences selected from the thousands of mts-siRNA sequences identified from the differential bioinformatic analysis. The microarray chips contained triplicate probes of the complementary sequence for each of the 1,200 mts-siRNA sequences. Total RNA was purified from 26 maize tissue pools (duplicate or triplicate tissue pools) from either LH244 (ATCC deposit number PTA-1173) or 01DKD2 (I294213) (ATCC deposit number PTA-7859) inbred plants. Each of the 26 RNA samples were hybridized with the microarray chips that contain probes for the 1,200 mts-siRNA. Hybridization images were collected using a GenePix® 4000B laser scanner (Molecular Devices, Sunnyvale, Calif.) and digitized using Array-Pro® Analyzer image analysis software (Media Cybernetics, Rockville, Md.). Relative signal values were derived by background subtraction and normalization. Differentially expressed signals were determined by t-test with p<0.05. From the microarray analysis, about 500 mts-siRNA from the 1,200 were identified as being highly tassel-specific.
Selected mts-siRNA sequences aligning to one of the six cDNA sequences were used for further microarray analysis to determine differential expression across maize tissues. Microarray analysis for mts-siRNA sequences of normalized signal values for V8-V9 tassel, V10-V12 tassel, or combined signals from the other tissue for maize germplasm LH244 and 01DKD2 is presented in Tables 3-10. […] Signal value results are measured as relative signal values and standard error (p<0.05) is represented by (STDR). […] The mts-siRNA sequence corresponds to the sense or antisense strand of the corresponding mts-siRNA target sequence in the cDNA sequence. The mts-siRNA sequence may have a single nucleotide, a two nucleotide, or a three nucleotide mismatch with the aligned portion of the cDNA sequence, and the mts-siRNA sequence may align to the sense strand or antisense strand of the cDNA sequence. The mts-siRNA sequences provided here are found across different maize germplasms.

With “SEQ ID NO: 50: mts-siRNA sequence aligning to cDNA SEQ ID NO: 19 (CTGATATCTATGCTAATTCAGG; expressed or natural sequence)”, the “01DKD2 V8-V9 Tassel relative signal value” is on record as 5.5, the “01DKD2 V10-V12 Tassel relative signal value” is reported as 326, the “01DKD2 Other Tissue relative signal value” came to 1.8 and the “LH244 V8-V9 Tassel relative signal value” amounted to 296. Besides, the “LH244 V10-V12 Tassel relative signal value” came out at 722 and the “LH244 Other Tissue relative signal value” is reported as 0.

In the case of “SEQ ID NO: 73: mts-siRNA sequence aligning to cDNA SEQ ID NO: 22 (AAGCTATCGATTCCCTAAGTGCCA; expressed or natural sequence)”, the “01DKD2 V8-V9 Tassel relative signal value” is on record as 37.5, the “01DKD2 V10-V12 Tassel relative signal value” came to 1695.5, the “01DKD2 Other Tissue relative signal value” was determined as 2 and the “LH244 V8-V9 Tassel relative signal value” is 1058.5. In addition, the “LH244 V10-V12 Tassel relative signal value” is reported as 2395.7 and the “LH244 Other Tissue relative signal value” came to 4.5.

“SEQ ID NO: 59: mts-siRNA sequence aligning to cDNA SEQ ID NO: 20 (ATGCCAAAGGTACCGATGTTAG; expressed or natural sequence)”: the “01DKD2 V8-V9 Tassel relative signal value” was 202, the “01DKD2 V10-V12 Tassel relative signal value” came out at 811.5, the “01DKD2 Other Tissue relative signal value” was 0.3 and the “LH244 V8-V9 Tassel relative signal value” worked out at 789. The “LH244 V10-V12 Tassel relative signal value” was found to be 1262.7 and the “LH244 Other Tissue relative signal value” turned out to be 4.1.

On to “SEQ ID NO: 30: mts-siRNA sequence aligning to cDNA SEQ ID NO: 17 (CACCATGCACGGTCGTCGT; expressed or natural sequence)”, for which the “01DKD2 V8-V9 Tassel relative signal value” is reported as 32, the “01DKD2 V10-V12 Tassel relative signal value” worked out at 282, the “01DKD2 Other Tissue relative signal value” was determined as 6.5 and the “LH244 V8-V9 Tassel relative signal value” is 173.5. The “LH244 V10-V12 Tassel relative signal value” is 495.7 and the “LH244 Other Tissue relative signal value” was determined as 4.2.

With “SEQ ID NO: 61: mts-siRNA sequence aligning to cDNA SEQ ID NO: 21 (CTGTGATGTAGAAGCCCAGAC; expressed or natural sequence)”, the “01DKD2 V8-V9 Tassel relative signal value” is listed as 461, the “01DKD2 V10-V12 Tassel relative signal value” is reported as 454, the “01DKD2 Other Tissue relative signal value” was found to be 8 and the “LH244 V8-V9 Tassel relative signal value” turned out to be 850.5. Also, the “LH244 V10-V12 Tassel relative signal value” is 334.7 and the “LH244 Other Tissue relative signal value” is on record as 9.4.

Take “SEQ ID NO: 64: mts-siRNA sequence aligning to cDNA SEQ ID NO: 21 (GCATATATGTGATGAAGACCG; expressed or natural sequence)”: the “01DKD2 V8-V9 Tassel relative signal value” is 13.5, the “01DKD2 V10-V12 Tassel relative signal value” was determined as 9, the “01DKD2 Other Tissue relative signal value” is 1.3 and the “LH244 V8-V9 Tassel relative signal value” worked out at 23. Besides, the “LH244 V10-V12 Tassel relative signal value” was determined as 13.7 and the “LH244 Other Tissue relative signal value” was found to be 1.8.

Take “SEQ ID NO: 40: mts-siRNA sequence aligning to cDNA SEQ ID NO: 18 (CCTTGCGCCTTAACTATCGTGC; expressed or natural sequence)”: the “01DKD2 V8-V9 Tassel relative signal value” is recorded as 7.5, the “01DKD2 V10-V12 Tassel relative signal value” is 452, the “01DKD2 Other Tissue relative signal value” is 2.8 and the “LH244 V8-V9 Tassel relative signal value” was 119. In addition, the “LH244 V10-V12 Tassel relative signal value” was determined as 448.7 and the “LH244 Other Tissue relative signal value” amounted to 1.5.

For “SEQ ID NO: 45: mts-siRNA sequence aligning to cDNA SEQ ID NO: 19 (TAAATGGTCGTCGTATTAGCTGAT; expressed or natural sequence)”, the “01DKD2 V8-V9 Tassel relative signal value” was 253, the “01DKD2 V10-V12 Tassel relative signal value” came out at 7195.5, the “01DKD2 Other Tissue relative signal value” came to 5.8 and the “LH244 V8-V9 Tassel relative signal value” turned out to be 7901. Besides, the “LH244 V10-V12 Tassel relative signal value” is 9982.3 and the “LH244 Other Tissue relative signal value” is recorded as 8.2.

Regarding “SEQ ID NO: 55: mts-siRNA sequence aligning to cDNA SEQ ID NO: 20 (CGGACATTTGCAGTTCTATGGT; expressed or natural sequence)”, the “01DKD2 V8-V9 Tassel relative signal value” came out at 73, the “01DKD2 V10-V12 Tassel relative signal value” is 405.5, the “01DKD2 Other Tissue relative signal value” stood at 1 and the “LH244 V8-V9 Tassel relative signal value” is 377.5. Moreover, the “LH244 V10-V12 Tassel relative signal value” amounted to 581.7 and the “LH244 Other Tissue relative signal value” is 1.1.

For the substance “SEQ ID NO: 63: mts-siRNA sequence aligning to cDNA SEQ ID NO: 21 (TAGATCACTCGGGTCGCCACA; expressed or natural sequence)”, the “01DKD2 V8-V9 Tassel relative signal value” was determined as 14.5, the “01DKD2 V10-V12 Tassel relative signal value” turned out to be 18, the “01DKD2 Other Tissue relative signal value” was determined as 1.5 and the “LH244 V8-V9 Tassel relative signal value” is recorded as 34.5. Further, the “LH244 V10-V12 Tassel relative signal value” amounted to 11.7 and the “LH244 Other Tissue relative signal value” turned out to be 3.2.

As for “SEQ ID NO: 83: mts-siRNA sequence aligning to cDNA SEQ ID NO: 22 (CAAGGCAAGAAGGTGCTT; expressed or natural sequence)”, the “01DKD2 V8-V9 Tassel relative signal value” is on record as 2, the “01DKD2 V10-V12 Tassel relative signal value” is 253.5, the “01DKD2 Other Tissue relative signal value” is recorded as 1.5 and the “LH244 V8-V9 Tassel relative signal value” was found to be 173. Besides, the “LH244 V10-V12 Tassel relative signal value” was 303 and the “LH244 Other Tissue relative signal value” was 2.5.

Turning to “SEQ ID NO: 27: mts-siRNA sequence aligning to cDNA SEQ ID NO: 17 (CGGACATTTGCAGTTCTATGGT; expressed or natural sequence)”, the “01DKD2 V8-V9 Tassel relative signal value” worked out at 73, the “01DKD2 V10-V12 Tassel relative signal value” is given as 405.5, the “01DKD2 Other Tissue relative signal value” came out at 1 and the “LH244 V8-V9 Tassel relative signal value” turned out to be 377.5. In addition, the “LH244 V10-V12 Tassel relative signal value” turned out to be 581.7 and the “LH244 Other Tissue relative signal value” was determined as 1.1.

Take “SEQ ID NO: 82: mts-siRNA sequence aligning to cDNA SEQ ID NO: 22 (AGGCCTCCCTTCCCTATGGTAGCC; expressed or natural sequence)”: the “01DKD2 V8-V9 Tassel relative signal value” is reported as 71.5, the “01DKD2 V10-V12 Tassel relative signal value” came out at 211, the “01DKD2 Other Tissue relative signal value” turned out to be 54.8 and the “LH244 V8-V9 Tassel relative signal value” is 95.5. Besides, the “LH244 V10-V12 Tassel relative signal value” is recorded as 137 and the “LH244 Other Tissue relative signal value” came to 217.4.

Regarding “SEQ ID NO: 78: mts-siRNA sequence aligning to cDNA SEQ ID NO: 22 (GCATGCACTGGTGAGTCACTGTTG; expressed or natural sequence)”, the “01DKD2 V8-V9 Tassel relative signal value” was 3, the “01DKD2 V10-V12 Tassel relative signal value” is 715.5, the “01DKD2 Other Tissue relative signal value” is recorded as 4.5 and the “LH244 V8-V9 Tassel relative signal value” is 47.5. Moreover, the “LH244 V10-V12 Tassel relative signal value” is 642.7 and the “LH244 Other Tissue relative signal value” is 1.

Take “SEQ ID NO: 33: mts-siRNA sequence aligning to cDNA SEQ ID NO: 18 (AGGGTGAATCGGATGTTGAGGTGG; expressed or natural sequence)”: the “01DKD2 V8-V9 Tassel relative signal value” is recorded as 4.5, the “01DKD2 V10-V12 Tassel relative signal value” is 648.5, the “01DKD2 Other Tissue relative signal value” is given as 2.8 and the “LH244 V8-V9 Tassel relative signal value” was 111.5. The “LH244 V10-V12 Tassel relative signal value” turned out to be 1032.7 and the “LH244 Other Tissue relative signal value” worked out at 17.8.

With “SEQ ID NO: 56: mts-siRNA sequence aligning to cDNA SEQ ID NO: 20 (TACACAGTGTCGTCCTCTTCGT; expressed or natural sequence)”, the “01DKD2 V8-V9 Tassel relative signal value” was determined as 138.5, the “01DKD2 V10-V12 Tassel relative signal value” amounted to 599.5, the “01DKD2 Other Tissue relative signal value” was determined as 19.3 and the “LH244 V8-V9 Tassel relative signal value” worked out at 261. The “LH244 V10-V12 Tassel relative signal value” is given as 692 and the “LH244 Other Tissue relative signal value” worked out at 49.5.

As to “SEQ ID NO: 81: mts-siRNA sequence aligning to cDNA SEQ ID NO: 22 (ACCATCAACGACTACAACGGTGAA; expressed or natural sequence)”, the “01DKD2 V8-V9 Tassel relative signal value” was found to be 1, the “01DKD2 V10-V12 Tassel relative signal value” worked out at 320, the “01DKD2 Other Tissue relative signal value” was 0 and the “LH244 V8-V9 Tassel relative signal value” was 207. The “LH244 V10-V12 Tassel relative signal value” was 470.3 and the “LH244 Other Tissue relative signal value” is recorded as 1.6.
